Assay results taken from US20040214762A1, “Use of inhibitors of proline endopeptidase to modulate inositol (1,4,5) triphosphate concentration dependent on intracellular signal cascades” (priority 2001, published 2004).
Values belong to the molecule of their own block, whether it stands above or below them.

Key:
[1] = target: T1, intracellular PEP activity (Homo sapiens, UniProt P48147); assay: Inhibition of intracellular PEP activity in U343 cells (Z-Gly-Pro-NHMec); format: cell-based
T1 construct: endogenous in cells; host or cells: U343 human astro glioma cells (wild type)
T1 sequence (P48147 1-710): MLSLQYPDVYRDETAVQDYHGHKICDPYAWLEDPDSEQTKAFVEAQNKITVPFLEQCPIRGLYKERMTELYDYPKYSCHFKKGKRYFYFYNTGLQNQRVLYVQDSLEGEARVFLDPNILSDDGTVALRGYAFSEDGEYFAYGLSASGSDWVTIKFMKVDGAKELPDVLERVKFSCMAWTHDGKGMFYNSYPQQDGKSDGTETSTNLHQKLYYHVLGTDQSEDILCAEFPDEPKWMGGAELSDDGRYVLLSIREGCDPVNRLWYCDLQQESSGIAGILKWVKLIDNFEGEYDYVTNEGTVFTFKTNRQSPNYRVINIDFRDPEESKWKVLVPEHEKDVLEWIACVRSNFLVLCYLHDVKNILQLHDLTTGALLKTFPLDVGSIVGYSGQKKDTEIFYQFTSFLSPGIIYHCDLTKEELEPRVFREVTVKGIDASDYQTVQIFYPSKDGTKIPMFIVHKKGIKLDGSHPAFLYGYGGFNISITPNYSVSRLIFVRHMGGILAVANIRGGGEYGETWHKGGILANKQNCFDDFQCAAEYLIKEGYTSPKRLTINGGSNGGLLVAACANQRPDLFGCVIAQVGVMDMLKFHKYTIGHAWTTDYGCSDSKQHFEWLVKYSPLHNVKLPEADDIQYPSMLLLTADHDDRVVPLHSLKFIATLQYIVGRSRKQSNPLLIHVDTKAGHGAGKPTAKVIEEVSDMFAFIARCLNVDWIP
Method: (§1) Two different approaches were chosen to influence the intracellular activity of PEP in U343 cells. Fmoc-Ala-Pyrr-CN is a potent and specific inhibitor for PEP (9), with an observed Ki value of 70 pM against recombinant human PEP (data not shown). It has been shown that this inhibitor is able to penetrate the cell membrane and inhibit PEP intracellularly (10). […] This inhibition is observed for up to 12 hours without adding fresh inhibitor. In addition, a totally different approach of reducing PEP activity was employed by generating antisense cell lines displaying reduced expression of the target enzyme.
For the determination of PEP activity, U343 wild-type and PEP antisense cells (1×10^7) were harvested by washing twice in phosphate buffered saline (GIBCO BRL) and resuspended in 200 μl assay buffer (50 mM HEPES pH 7.5; 200 mM NaCl; 1 mM EDTA; 1 mM DTT). […] The protein concentration in the supernatant was determined according to the method of Bradford (5). PEP activity was measured in assay buffer using the fluorogenic substrate Z-Gly-Pro-NHMec (10 μM) (Bachem) on a Kontron spectrofluorometer SFM 25 (excitation 380, emission 460) equipped with a four-cell changer and controlled by an IBM-compatible personal computer. The obtained data were analyzed with the software Flucol (6).

PEP [2] = target: T2, PEP (Homo sapiens, UniProt P48147); assay: Ki against recombinant human PEP; format: biochemical; conditions: data not shown
T2 sequence (P48147 1-710): T1 sequence (P48147 1-710)
Method: as §1

[3] = tested on: IP3 concentration in U343 cells; assay: IP3 concentration in U343 cells after stimulation by substance P; format: cell-based, human; conditions: for difference in IP3 concentration by inhibition: 5 μM inhibitor 12 hours
Method: To characterize the intracellular function of PEP, the IP3 concentration in the antisense cell lines Was measured. Cells were grown in 25 cm^2 culture flasks to nearly 100% confluence. IP3 concentration was determined by an isotope dilution method (Amersham Phamacia Biotech) using 0.5×10^6 cells per measurement. […] All measurements were done in quadruplicate. The calculation of IP3 concentration and the statistical analysis (t-test) were performed using Prism 3.0 (Graph Pad Software).
Wild-type and PEP antisense U343 cell lines were cultured in duplicate in 21 cm^2 culture dishes (Greiner) until confluence. Prior to stimulation the cells were washed twice in PBS and preincubated for 10 h in Optimem1 medium containing 1.6 μg/ml leupeptin (Sigma), 0.86 μg/ml chymostatin (Sigma), and 40 μg/ml bacitracin (Sigma) at 37° C. and 5% CO2. Substance P (Bachem) was added to obtain a final concentration of 1×10^−6 M and the incubation was stopped at the indicated time by rapidly aspirating the medium and adding of 0.4 ml ice cold trichloric acid. Preparation of samples and measurement of IP3 concentration were performed as described above.

[4] = tested on: IP3 concentration in U343 cells; assay: IP3 concentration in U343 cells treated with PEP inhibitor (isotope dilution method); format: cell-based, human
Method: To characterize the intracellular function of PEP, the IP3 concentration in the antisense cell lines Was measured. Cells were grown in 25 cm^2 culture flasks to nearly 100% confluence. IP3 concentration was determined by an isotope dilution method (Amersham Phamacia Biotech) using 0.5×10^6 cells per measurement. To inhibit intracellular PEP, the cells were washed twice with PBS and incubated for 4 hours in Optimem 1 medium (GIBCO BRL) supplemented with 5 μM PEP-inhibitor Fmoc-alanyl-pyrroline-2-nitrile (Fmoc-Ala-Pyrr-CN). All measurements were done in quadruplicate. The calculation of IP3 concentration and the statistical analysis (t-test) were performed using Prism 3.0 (Graph Pad Software).
To use an alternative approach suppressing PEP activity in U343 cells, the cells were incubated for 3 hours in presence of the specific inhibitor Fmoc-Ala-Pyrr-CN (5 μM). The influence of DMSO, necessary for dissolving the inhibitor, was excluded by adding the same amount (0.05%) of DMSO to the media of control cells. […] However, the observed changes in IP3 concentration were only 0.16 pmol/10^6 cells. This is much lower than the observed change on IP3 concentration in cell line as-11 still having 30% remaining PEP activity, and calls into question the correlation between PEP activity and IP3 concentration. […] Moreover, the lower concentration of IP3 measured after 24 hours reflects the slight recovery of PEP activity at that time point. The total amount of IP3 after 12 hours (1.69±0.1) pmol/10^6 cells; n=4) is higher than the concentration measured in cell line as-11 (0.9±0.07 pmol/10^6 cells; n=4), displaying 30% remaining enzyme activity.

[5] = target: T3, purified recombinant human prolyl endopeptidase (Homo sapiens, UniProt P48147); assay: Determination of IC50 with Z-Gly-Pro-AMC; format: biochemical; conditions: Z-Gly-Pro-AMC 10 μM, 37° C., 60 min
T3 sequence (P48147 1-710): T1 sequence (P48147 1-710)
Method: 100 μl inhibitor stock solution were mixed with 100 μl buffer (EPES pH7.6) and 50 μl substrate (Z-Gly-Pro-AMC, final concentration 10 μM). Reaction was started by addition of 20 μl purified recombinant human prolyl endopeptidase. Fluorescence measurement was performed at 37° C. and λexiatation=380 nm, λemission=465 nm for 60 min using a plate reader (HTS7000plus, Applied Biosystems, Weiterstadt, Germany). The final inhibitor concentrations ranged between 1 pM and 10 μM. For calculation of the IC50 value Prism 3″ (Graphpad) was used. The IC50-value of Benzyl-N-[1-(cyclopentylcarbonyl)-2-methylbutyl]carbamate was calculated as of IC50=8,91*10^−7 M

PEP [6] = target: T2, PEP; assay: Degradation of substance P in serum free medium of U343 cells (MALDI-TOF MS); format: in vitro ADME; design: endogenous in cells; host or cells: U343 human astro glioma cells (wild type); conditions: serum free Optimem1 medium of U343 cells, 10 min; data not shown
Method: Using RT-PCR, the occurrence of substance P specific neurokinin receptors (NK-R) in U343 cells was investigated. PCR products could be obtained for two receptors displaying an appropriate size (FIG. 5). […] Being aware that substance P is an excellent in vitro substrate for PEP, we investigated potential degradation of substance P during the incubation time in the serum free Optimem1 medium of U343 cells by MALDI-TOF MS analysis. […] This is in agreement with the fact that no PEP activity is measurable in the medium (FIG. 6).

duration of inhibition without adding fresh inhibitor ([1]; 5 μM): up to 12 hours
inhibition of intracellular PEP activity ([1]; 5 μM in medium): total inhibition
Ki (PEP [2]): 0.07 nM
Molecule: Fmoc-alanyl-pyrroline-2-nitrile [Fmoc-Ala-Pyrr-CN]
difference in IP3 concentration by inhibition ([3]; U343 cells stimulated with 1 μM substance P 5 sec): 7.9 pmol/10^6 cells
kinetic profile of IP3 stimulation by substance P, inhibitor treated vs control cells ([3]; U343 wild-type cells, 5 μM for 12 hours, 1 μM substance P): slight increased, but similar pattern
proportional difference in IP3 concentration by inhibition ([3]; non stimulated U343 cells): 5.5 fold
difference in IP3 concentration by inhibition ([3]; non stimulated U343 cells): 1.7 pmol/10^6 cells
proportional difference in IP3 concentration by inhibition ([3]; substance P stimulated U343 cells): 1.7 fold
change in IP3 concentration ([4]; 5 μM, 3 hours incubation): 0.16 pmol/10^6 cells
total amount of IP3 ([4]; 5 μM, after 12 hours total inhibition, n=4): 1.69±0.1 pmol/10^6 cells
time to maximum IP3 concentration ([4]; single treatment 5 μM): 12 h

IC50 [5]: 891 nM
Molecule: CCC(C)C(NC(=O)OCc1ccccc1)C(=O)C1CCCC1 (stereo not shown) [Benzyl-N-[1-(cyclopentylcarbonyl)-2-methylbutyl]carbamate]

Molecule: substance P: neuropeptide (Bachem), peptide hormone used to stimulate U343 cells
PEP specific degradation (PEP [6]): no PEP specific degradation was observed
time of maximum IP3 concentration after stimulation ([3]; U343 wild-type untreated or inhibitor treated and as-2 cells, 1 μM substance P): 5 s
rise of IP3 concentration by substance P stimulation ([3]; wild-type U343 cells, 1 μM substance P, 5 sec): about 14 fold
IP3 concentration after substance P stimulation ([3]; wild-type U343 cells, 1 μM substance P, 5 sec, n=4): 5.4±0.49 pmol/10^6 cells
